In patent publication US3958011A, “Compositions of tri-n-propylacetic acid and salts thereof and treatment of neurological disorders with such compositions” (priority 1972, dated 1976):

Key:
mice [1] = assay: Traction test (myorelaxant properties); assay type: in vivo, mice (OF 1)
Procedure: This test enables sense of balance as well as muscular tonus and strength to be evaulated.
The test is carried out on groups of 10 male mice of the OF 1 strain weighing about 25 g. It consists of suspending the mice by the front paws to a horizontally stretched wire. Note is first taken of the time required by a group of control animals to effect recovery i.e. to place at least one of their back paws on the wire.

[2] = Rota rod test (neurotoxicity); assay type: in vivo; conditions: mouse, ip, mice, intraperitoneal, 30 min after administration, read-out: NTD50 (neurotoxic dose 50) in the rota rod test
Procedure: The test used was that known as the rota rod test (BOISSIER-Therapie 1958, XIII, pp. 1074-1118). This test aims at enabling the animals' ability to coordinate their movements to be evaluated. It is carried out on batches of 10 mice each weighing about 25 g. The compound to be tested is administered by intraperitoneal route to the animals of each batch so that each batch receives a higher dose than that given to the preceding batch. Thirty minutes after administration, the mice are placed for two minutes on a wooden roller of 4.8 cm diameter which turns at the rate of 4 revolutions per minute. The roller has a rough surface to prevent the animals from slipping.
By this means, the neurotoxic dose 50 (NTD 50) can be determined, i.e. the dose of the compound with which one half of the animals can no longer stay on the roller during the period of time fixed as the reference period.
In order to obtain an activity index figure 30 minutes after administration the rota rod test described above was also performed using for comparison a known myorelaxant, namely mephenesin.

mice [3] = assay: Maximum electroshock seizure (anticonvulsant action); assay type: in vivo, mice (OF 1); conditions: for ED50: Mus musculus, ip, 0.25 h, i.p., 15 min after administration, protection of 50% against tonic seizures
Procedure: This seizure is characterized in the mouse by extension of the back paws for 5 to 10 seconds. The extension is similar to that observed during the tonicoclonic seizures provoked by chemical convulsants such as pentylenetetrazol or strychnine.
The test was carried out on batches of 10 mice of the OF 1 strain weighing about 22 g. […] Fifteen minutes later, each animal received an electric shock of twice threshold intensity (about 60 volts).
This latter value is indicated by the symbol HD50 or hypnotic dose 50 and the efficacy index by the fraction: [formula]

mice [4] = assay: Pentylenetetrazol-induced seizure (anticonvulsant action); assay type: in vivo, mice (OF 1); conditions: Mus musculus, ip, i.p., 125 mg/kg pentylenetetrazol i.p.
Procedure: The purpose of this test which is carried out on mice is to determine whether the compounds of the invention, when given preventively by intraperitoneal route, are capable at certain doses of protecting some of the animals against the epileptic seizure produced by an adequate and predetermined dose of pentylenetetrazol which would be 100% fatal in the absence of the compound. The test was carried out on batches of 10 male OF 1 mice weighing about 25 g.

rats = assay: Anoxic seizure induced by gallamine triiodoethylate (antianoxic properties); assay type: in vivo, rats (OFA); conditions: 2 millimols/kg
Description: The injection of a sufficient dose of a synthetic curariform substance such as gallamine triiodoethylate provokes in the rat paralysis of the diaphragm. The animal then dies by asphyxia.
Male rats of the OFA strain and weighing about 250 g. were first anesthetized with ether in order to enable tracheotomy to be performed and cortical electrodes to be inserted. Each rat was then maintained under conditions of artificial respiration by means of an appropriate apparatus and a paralysing dose of gallamine triiodoethylate was administered by intraperitoneal route to eliminate spontaneous breathing. The electrocorticogram, the electrocardiogram and the rectal temperature were registered. After a period of 30 minutes during which stabilization of the registrations was obtained the animal was treated with 2 millimols/kg of an oily solution of tri-n-propylacetic acid or an aqueous solution of one of its alkali metal salts. The artificial respiratory apparatus was stopped 5 minutes after treatment and note was taken of the cardiac frequency every 10 seconds as well as of the period of time between the stopping of the apparatus and the appearance of the flat tracing on the electrocorticogram. This period of time represents the period of survival of the animal. The value of the cardiac frequency corresponding to moment of appearance of the flat tracing was calculated by extrapolation.
The same test was performed on control animals but without administration of a compound of the invention.

Cc1ccccc1OCC(O)CO (stereo not drawn) [Mephenesin, reference compound]
ED50 (mice [1]; Mus musculus, ip, 0.5 h, i.p., 30 min. after administration, read-out: ED50, loss of traction reflex): 250 mg/kg | Activity index: NTD50/ED50 (mice [1]; rota rod NTD50 / traction ED50, 30 minutes after administration): 0.4 | TD50 at 0.5 h [2]: 100 mg/kg

CCC1(c2ccccc2)C(=O)NC(=O)NC1=O [Phenobarbital, reference compound]
ED50 (mice [3]): 78 mg/kg | Efficacy index (HD50 compared with ED50) (mice [3]; electroshock ED50 versus hypnotic dose 50): 1.3

CCCC(CCC)(CCC)C(=O)O [Tri-n-propylacetic acid, tri-n-propylacetic acid]
ED50 (mice [4]; 0.125 h, 7 min. 30 sec after administration): 87 mg/kg | ED50 (mice [4]; 0.25 h, 15 min. after administration): 72 mg/kg | ED50 (mice [4]; 0.5 h, 30 min. after administration): 124 mg/kg | Increase of period of survival versus controls (rats): 19% | Period of survival (rats; controls 74.3 ± 2.3): 87.9 ± 3.7 s | Cardiac frequency when the flat tracing appears (rats; controls 150, calculated by extrapolation): 109 | ED50 (mice [3]): 145 mg/kg
